Reference: patent US20060229433A1, “Modified antiviral peptides with increased activity and cell membrane affinity” (priority 2003, published 2006)
Values joined by “and” are separate entries in the source; they are usually repeats but may differ in a detail not shown here. Identical values can stand only once. Bridge positions count the residues as written; N and C are the ends. Square brackets hold non-standard residues; d marks the D form. Peptide text beside a SMILES is read from it. I, II: the chains in the order shown. Ava = NCCCCC(=O)O

Tests used:
[1] = test system: HIV-1 89.6 subtype B dualtropic (X4R5); conditions: PBMC, Table 5
HIV-1 NL 4-3 [2] = test: Infection of human peripheral blood lymphocytes (PBL) with NL 4-3 strain, p24 ELISA; type: cell-based
Protocol: Peripheral blood lymphocytes from an HIV-1 negative donor were grown as described earlier, maintained in RPMI 1640 with ultraglutamine, supplemented with IL2 (20 μg/ml), penicillin (100 U/ml), streptomycin (100 μg/ml), and 10% heat-inactivated fetal calf serum. Cells were stimulated three days in the medium supplemented with phytohemagglutinin (20 U/ml PHA P, DIFCO, Detroit Mich.).
Samples of 10^6/100 μL PBL cells were preincubated in 96-well microtiter plates in culture medium containing various concentrations of peptides. After a 1 h treatment at 37° C., 100 μl of diluted viral solution of HIV-1 was added. The cells were exposed to the virus for 1 h at 37° C. at a multiplicity of infection of 1000 TCID50 per ml. The cells were washed three times and cultured at […] of medium with the treatment in 24-well plates incubated at 37° in culture medium with the peptides in 5% CO2. The treatment was permanent before virus adsorption, during virus adsorption and after infection. The PBL culture medium was replaced every 3-4 days during three weeks always in the presence of peptide. The cell viability was assessed by cell counts and trypan-blue exclusion assay. The viral production in the culture supernatant was quantified by p24 ELISA test, as described earlier. All the experiments have been done in blind-tests. Tests have been done in duplicate.

HIV-1 NL 4-3 [3] = test: HIV-1 infection of C8166 cells (syncytia formation, p24 ELISA) with HIV-1 NL 4-3; type: cell-based; conditions: for IC50: C8166 cells, HIV-1 subtype B NL 4-3, Table 3
Protocol: (§1) HIV-1 NL 4-3 isolate (Adachi et al., 1986; Barré-Sinoussi et al., 1983) and highly cytopathic Zairian HIV-1 NDK isolate (Ellrodt et al., 1984) was propagated in permissive CEM cells (Nara et al., 1987). Uninfected CEM and C8166 (Salahuddin et al., 1983) were maintained in RPMI 1640 (R10) with ultraglutamine (cambrex, Vervier, Belgium), penicillin (100 U/ml), streptomycin (100 μg/ml), and 10% heat-inactivated fetal calf serum (Cambrex).
(§2) Samples of 3×10^5/100 μL C8166 cells were preincubated in 96-well microtiter plates in culture medium containing various concentrations of peptide. After a 1 h treatment at 37° C., 100 μl of diluted viral solution of HIV-1 was added. The cells were exposed to the virus for 1 h at 37° C. at a multiplicity of infection of 1000 TCID50 per ml. The cells were washed three times and cultured at 3×10^5/ml of R10 with the treatment in 24-well plates incubated at 37° C. C8166 culture medium was replaced at Day-4 post-infection. The treatment was permanent before virus adsorption, during virus adsorption and after infection. Assays on C8166 cells have been performed at least twice and in duplicate. Toxicity was evaluated by daily cell count and trypan-blue exclusion assay. Infection of C8166 T-cells with HIV-1 was assessed by virus-induced cytopathic effects (syncytia formation) and by quantification of cell free p24 viral protein in the culture supernatants. Measurements of HIV-1 p24^gag concentration in the culture supernatants were achieved by ELISA (ALLIANCE® HIV-1 p24 kit, Perkin Elmer, life sciences, USA).

HIV-1 NL 4-3 [4] = test: as above; type: cell-based; set-up: key: ++, +, (+), (+)− and − represent decreasing numbers of syncitia formed; ++, +, (+), (+)− and − represent decreasing numbers of syncitia formed; ++, +, (+), (+)− and − represent decreasing numbers of syncitia formed; ++, +, (+), (+)− and − represent decreasing numbers of syncitia formed; ++, +, (+), (+)− and − represent decreasing numbers of syncitia formed; conditions: Table 1
Protocol: as §1, §2

HIV-1 NL 4-3 [5] = test: as above; type: cell-based; set-up: key: ++, +, (+), (+)− and − represent decreasing numbers of syncitia formed.; ++, +, (+), (+)− and − represent decreasing numbers of syncitia formed.; ++, +, (+), (+)− and − represent decreasing numbers of syncitia formed.; ++, +, (+), (+)− and − represent decreasing numbers of syncitia formed.; ++, +, (+), (+)− and − represent decreasing numbers of syncitia formed; conditions: Table 2
Protocol: as §1, §2

## CC(C)C[C@H](NC(=O)[C@@H]1CCCN1C(=O)[C@H](CO)NC(=O)[C@H](Cc1ccc(O)cc1)NC(=O)CNC(=O)[C@H](CCC(N)=O)NC(=O)[C@@H](N)CCCNC(=N)N)C(=O)NCCCC[C@H](NC(=O)[C@H](CC(C)C)NC(=O)[C@@H]1CCCN1C(=O)[C@H](CO)NC(=O)[C@H](Cc1ccc(O)cc1)NC(=O)CNC(=O)[C@H](CCC(N)=O)NC(=O)[C@@H](N)CCCNC(=N)N)C(=O)NCCCCC(=O)O [RL dimer valeric acid, (RQGYSPL)2-K—NHCH2CH2CH2CH2COOH] (I: H-RQGYSPLK[Ava]-OH / II: H-RQGYSPL; amide I:8-II:C; N-terminus assumed)
[1]
  IC50: 10 nM
  IC100: 0.5 µM
HIV-1 NL 4-3 [2]; PBL, NL 4-3 strain, Table 4
  IC50: 5 nM
  IC100: 0.05 µM
HIV-1 NL 4-3 [3]
  IC50: 50 nM

## CC(C)C[C@H](NC(=O)[C@@H]1CCCN1C(=O)[C@H](CO)NC(=O)[C@H](Cc1ccc(O)cc1)NC(=O)CNC(=O)[C@H](CCC(N)=O)NC(=O)[C@@H](N)CCCNC(=N)N)C(=O)NCCCCC(=O)O [RL monomer valeric acid, RQGYSPL-NHCH2CH2CH2CH2COOH] (H-RQGYSPL[Ava]-OH)
[1]
  IC50: 10 nM
  IC100: 0.1 µM
HIV-1 NL 4-3 [2]; PBL, NL 4-3 strain, Table 4
  IC50: 10 nM
  IC100: 1 µM
HIV-1 NL 4-3 [3]
  IC50: 50 nM

## C[C@H](NC(=O)[C@H](CCCNC(=N)N)NC(=O)CNC(=O)[C@@H]1CCCN1C(=O)CN)C(=O)N[C@@H](Cc1ccccc1)C(=O)NCCCC[C@H](NC(=O)[C@H](Cc1ccccc1)NC(=O)[C@H](C)NC(=O)[C@H](CCCNC(=N)N)NC(=O)CNC(=O)[C@@H]1CCCN1C(=O)CN)C(=O)NCCCCC(=O)O [SPC3 dimer valeric acid, (GPGRAF)2-K—NHCH2CH2CH2CH2COOH] (I: H-GPGRAFK[Ava]-OH / II: H-GPGRAF; amide I:7-II:C; N-terminus assumed)
[1]
  IC50: 8 nM
  IC100: 0.5 µM
HIV-1 NL 4-3 [3]
  IC50: 50 nM

## SPC3-Penetratin [S2]
HIV-1 NL 4-3 [4]; 0.5 μM
  Day 4 syncitia formed: −
  Day 5 syncitia formed: −
  Day 6 syncitia formed: −
  Day 7 syncitia formed: +
HIV-1 NL 4-3 [4]; 1 μM
  Day 4 syncitia formed: −
  Day 5 syncitia formed: −
  Day 6 syncitia formed: −
  Day 7 syncitia formed: −
HIV-1 NL 4-3 [4]; 2 μM
  Day 4 syncitia formed: −
  Day 5 syncitia formed: −
  Day 6 syncitia formed: −
  Day 7 syncitia formed: −
HIV-1 NL 4-3 [2]; on PBL
  IC100: 0.01 µM
HIV-1 NL 4-3 [3]; Day 4, 0.5 μM, Table 1
  P 24: NEG
HIV-1 NL 4-3 [3]; Day 4, 0.5 μM, Table 2
  P 24: 2 pg/mL
HIV-1 NL 4-3 [3]; Day 4, 1 μM, Table 1
  P 24: NEG
HIV-1 NL 4-3 [3]; Day 4, 1 μM, Table 2
  P 24: NEG
HIV-1 NL 4-3 [3]; Day 4, 2 μM, Table 1
  P 24: NEG
HIV-1 NL 4-3 [3]; Day 4, 5 μM, Table 1
  P 24: NEG
HIV-1 NL 4-3 [3]; Day 7, 0.5 μM, Table 2
  P 24: 115 pg/mL and 91 pg/mL
HIV-1 NL 4-3 [3]; Day 7, 1 μM, Table 1
  P 24: 181 pg/mL and 245 pg/mL
HIV-1 NL 4-3 [5]; 0.05 μM
  Day 4 syncitia formed: (+)
  Day 5 syncitia formed: + and ++
  Day 6 syncitia formed: ++
  Day 7 syncitia formed: ++
HIV-1 NL 4-3 [5]; 0.1 μM
  Day 4 syncitia formed: (+)
  Day 5 syncitia formed: +
  Day 6 syncitia formed: +
  Day 7 syncitia formed: ++
HIV-1 NL 4-3 [5]; 0.5 μM
  Day 4 syncitia formed: −
  Day 5 syncitia formed: −
  Day 6 syncitia formed: −
  Day 7 syncitia formed: (+) and +
HIV-1 NL 4-3 [5]; 1 μM
  Day 4 syncitia formed: −
  Day 5 syncitia formed: −
  Day 6 syncitia formed: −
  Day 7 syncitia formed: −

## SPC3-Tat [S3]
HIV-1 NL 4-3 [4]; 0.5 μM
  Day 4 syncitia formed: −
  Day 5 syncitia formed: −
  Day 6 syncitia formed: −
  Day 7 syncitia formed: + and (+)
HIV-1 NL 4-3 [4]; 1 μM
  Day 4 syncitia formed: −
  Day 5 syncitia formed: −
  Day 6 syncitia formed: −
  Day 7 syncitia formed: − and +
HIV-1 NL 4-3 [4]; 2 μM
  Day 4 syncitia formed: −
  Day 5 syncitia formed: −
  Day 6 syncitia formed: −
  Day 7 syncitia formed: −
HIV-1 NL 4-3 [4]; 5 μM
  Day 4 syncitia formed: −
  Day 5 syncitia formed: −
  Day 6 syncitia formed: −
  Day 7 syncitia formed: −
HIV-1 NL 4-3 [2]; on PBL
  IC100: 0.1 µM
HIV-1 NL 4-3 [3]; Day 4, 0.1 μM, Table 2
  P 24: 61 pg/mL and 33 pg/mL
HIV-1 NL 4-3 [3]; Day 4, 2 μM, Table 1
  P 24: NEG
HIV-1 NL 4-3 [3]; Day 4, 5 μM, Table 1
  P 24: NEG
HIV-1 NL 4-3 [3]; Day 7, 0.05 μM, Table 2
  P 24: 3664 pg/mL and 2064 pg/mL
HIV-1 NL 4-3 [3]; Day 7, 0.1 μM, Table 2
  P 24: 787 pg/mL and 496 pg/mL
HIV-1 NL 4-3 [5]; 0.05 μM
  Day 4 syncitia formed: (+)
  Day 5 syncitia formed: +
  Day 6 syncitia formed: ++
  Day 7 syncitia formed: ++
HIV-1 NL 4-3 [5]; 0.1 μM
  Day 4 syncitia formed: (+)
  Day 5 syncitia formed: − and +
  Day 6 syncitia formed: +
  Day 7 syncitia formed: ++
HIV-1 NL 4-3 [5]; 0.5 μM
  Day 4 syncitia formed: −
  Day 5 syncitia formed: −
  Day 6 syncitia formed: −
  Day 7 syncitia formed: (+) and +
HIV-1 NL 4-3 [5]; 1 μM
  Day 4 syncitia formed: −
  Day 5 syncitia formed: −
  Day 6 syncitia formed: −
  Day 7 syncitia formed: −
